According to US20220073536A1 (Rigel Pharmaceuticals, Inc., priority 2003, published 2022):

Assays:
[1] = tested on: cultured human mast cells (CHMC); assay: CHMC low cell density ionomycin activation: tryptase assay; assay type: cell-based; conditions: low cell density CHMC, tryptase, 3 pt, read-out: LD Tryptase, CHMC, Iono, 3 pt
[2] = tested on: cultured human mast cells (CHMC); assay: CHMC low cell density IgE activation: tryptase assay; assay type: cell-based; conditions: low cell density CHMC, IgE activation, tryptase
In short: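 Tryptase release, fluorogenic substrate, 30 min RT. Prior anti-IgE stimulation of CHMC, 30 min, 37 °C, after 1 hr preincubation at 1000–1500 cells/well in MT; unstimulated wells received MT.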

[3] = 3 pt, read-out: LD Tryptase, CHMC, IgE, 3 pt
[4] = Homo sapiens, Mast cell, 3 pt, read-out: LD Tryptase, CHMC, IgE, 3 pt
[5] = Homo sapiens, Mast cell, 8 pt, read-out: LD Tryptase, CHMC, IgE, 8 pt
[6] = 8 pt, read-out: LD Tryptase, CHMC, IgE, 8 pt

SMILES | IC50 [1] | IC50 [2, 3] | IC50 ([1]; Homo sapiens, Mast cell) | IC50 [2, 4] | IC50 [2, 5] | IC50 [2, 6]
Fc1cnc(Cl)nc1Nc1ccc2c(n1)NCCO2 [Compound 1117, 2-Chloro-5-fluoro-N4-(3,4-dihydro-2H,4H-5-pyrid[1,4]oxazin-6-yl)-4-pyrimidineamine] | > 10 µM | > 10 µM |  |  |  | 
CC(C)(C)OC(=O)N1CC(Nc2nc(Nc3ccc(N4CCOCC4)cc3)ncc2F)C1 [Compound 1118, N4-(1-tert-Butoxycarbonylazetidin-3-yl)-5-fluoro-N2-(4-morpholinophenyl)-2,4-pyrimidinediamine] |  |  | < 10 µM | < 10 µM |  | 
CC(=O)N1CCN(c2ccc(Nc3ncc(F)c(NC4CN(C(=O)OC(C)(C)C)C4)n3)cc2)CC1 [Compound 1119, N2-[4-(4-Acetylpiperazino)phenyl]-N4-(1-tert-butoxycarbonylazetidin-3-yl)-5-fluoro-2,4-pyrimidinediamine] |  |  | > 10 µM | < 10 µM |  | 
CC(=O)N1CCN(c2cccc(Nc3ncc(F)c(NC4CN(C(=O)OC(C)(C)C)C4)n3)c2)CC1 [Compound 1120, N2-[3-(4-Acetylpiperazino)phenyl]-N4-(1-tert-butoxycarbonylazetidin-3-yl)-5-fluoro-2,4-pyrimidinediamine] |  |  | > 10 µM | > 10 µM |  | 
Fc1cnc(Nc2ccc(N3CCOCC3)cc2)nc1Nc1cc(C2CC2)n[nH]1 [Compound 1121] |  |  | > 10 µM | < 10 µM | < 10 µM | 
CCOC(=O)N1CCN(c2ccc(Nc3ncc(F)c(NC4CN(C(=O)OC(C)(C)C)C4)n3)cc2)CC1 [Compound 1122] |  |  | > 10 µM | < 10 µM |  | 
Fc1cnc(Nc2ccc(N3CCOCC3)cc2)nc1NC1CNC1 [Compound 1123] |  |  | < 10 µM | > 10 µM |  | 
CC(=O)N1CCN(c2ccc(Nc3ncc(F)c(NC4CNC4)n3)cc2)CC1 [Compound 1124] |  |  | > 10 µM | > 10 µM |  | 
CCOC(=O)N1CCN(c2ccc(Nc3ncc(F)c(NC4CNC4)n3)cc2)CC1 [Compound 1125] |  |  | > 10 µM | > 10 µM |  | 
Fc1cnc(Nc2cccc(N3CCOCC3)c2)nc1NC1CNC1 [Compound 1126] |  |  | < 10 µM | > 10 µM |  | 
CC(=O)N1CCN(c2cccc(Nc3ncc(F)c(NC4CNC4)n3)c2)CC1 [Compound 1127] |  |  | > 10 µM | < 10 µM |  | 
Fc1cnc(Nc2ccc(N3CCOCC3)cc2)nc1Nc1ccc2c(n1)NCCO2 [Compound 1128, N4-(3,4-Dihydro-2H,4H-5-pyrid[1,4]oxazin-6-yl)-5-fluoro-N2-(4-morpholinophenyl)-2,4-pyrimidinediamine] | > 10 µM |  |  |  |  | < 10 µM
CN(c1nc(Nc2ccc(N3CCOCC3)cc2)ncc1F)C1CCC1 [Compound 1139, N4-Cyclobutyl-5-fluoro-N4-methyl-N2-(4-morpholinophenyl)-2,4-pyrimidinediamine] |  |  | > 10 µM | < 10 µM |  | 
CC(=O)N1CCN(c2ccc(Nc3ncc(F)c(N(C)C4CCC4)n3)cc2)CC1 [Compound 1140, N2-[4-(4-Acetylpiperazino)phenyl]-N4-cyclobutyl-5-fluoro-N4-methyl-2,4-pyrimidinediamine] |  |  | > 10 µM | < 10 µM |  | 
CN1CCN(c2ccc(Nc3ncc(F)c(Nc4ccc5c(n4)NCCO5)n3)cc2)CC1 [Compound 1141, N4-(3,4-Dihydro-2H,4H-5-pyrid[1,4]oxazin-6-yl)-5-fluoro-N2-[4-(4-methylpiperazino)phenyl]-2,4-pyrimidinediamine] | > 10 µM | < 10 µM |  |  |  | < 10 µM
CN1CCN(c2cccc(Nc3ncc(F)c(Nc4ccc5c(n4)NCCO5)n3)c2)CC1 [Compound 1142, N4-(3,4-Dihydro-2H,4H-5-pyrid[1,4]oxazin-6-yl)-5-fluoro-N2-[3-(4-methylpiperazino)phenyl]-2,4-pyrimidinediamine] | > 10 µM | < 10 µM |  |  |  | < 10 µM
Fc1cnc(Nc2cccc(-c3ncco3)c2)nc1Nc1ccc2c(n1)NCCO2 [Compound 1143, N4-(3,4-Dihydro-2H,4H-5-pyrid[1,4]oxazin-6-yl)-5-fluoro-N2-[3-(oxazol-2-yl)phenyl]-2,4-pyrimidinediamine] | > 10 µM | < 10 µM |  |  |  | < 10 µM
COc1cc(Nc2ncc(F)c(Nc3ccc4c(n3)NCCO4)n2)cc(OC)c1OC [Compound 1145, N4-(3,4-Dihydro-2H,4H-5-pyrid[1,4]oxazin-6-yl)-5-fluoro-N2-(3,4,5-trimethoxyphenyl)-2,4-pyrimidinediamine] |  |  | > 10 µM | < 10 µM | < 10 µM | 
COc1ccc(Nc2ncc(F)c(Nc3ccc4c(n3)NCCO4)n2)cc1Cl [Compound 1146, N2-(3-Chloro-4-methoxyphenyl)-N4-(3,4-dihydro-2H,4H-5-pyrid[1,4]oxazin-6-yl)-5-fluoro-2,4-pyrimidinediamine] | > 10 µM | < 10 µM |  |  |  | 

SMILES | IC50 [1] | IC50 [2, 3] | IC50 ([1]; Homo sapiens, Mast cell) | IC50 [2, 4] | IC50 [2, 5] | IC50 [2, 6]
CCOC(=O)N1CCN(c2ccc(Nc3ncc(F)c(N(C)C4CCC4)n3)cc2)CC1 [Compound 1148, N4-Cyclobutyl-N2-[4-(4-ethoxycarbonylpiperazino)phenyl]-5-fluoro-N4-methyl-2,4-pyrimidinediamine] |  |  | > 10 µM | < 10 µM | < 10 µM | 
CN(c1nc(Nc2cccc(N3CCOCC3)c2)ncc1F)C1CCC1 [Compound 1149, N4-Cyclobutyl-5-fluoro-N4-methyl-N2-(3-morpholinophenyl)-2,4-pyrimidinediamine] |  |  | > 10 µM | < 10 µM |  | 
CC(=O)N1CCN(c2cccc(Nc3ncc(F)c(N(C)C4CCC4)n3)c2)CC1 [Compound 1150, N2-[3-(4-Acetylpiperazino)phenyl]-N4-cyclobutyl-5-fluoro-N4-methyl-2,4-pyrimidinediamine] |  |  | > 10 µM | < 10 µM |  | 
CN1CCN(c2cccc(Nc3ncc(F)c(N(C)C4CCC4)n3)c2)CC1 [Compound 1151, N4-Cyclobutyl-5-fluoro-N4-methyl-N2-[3-(4-methylpiperazino)phenyl]-2,4-pyrimidinediamine] |  |  | > 10 µM | < 10 µM | < 10 µM | 
CCOC(=O)N1CCN(c2cccc(Nc3ncc(F)c(N(C)C4CCC4)n3)c2)CC1 [Compound 1152, N4-Cyclobutyl-N2-[3-(4-ethoxycarbonylpiperazino)phenyl]-5-fluoro-N4-methyl-2,4-pyrimidinediamine] |  |  | > 10 µM | < 10 µM |  | 
COc1cc(C(N)=O)c(Nc2ncc(F)c(N(C)C3CCC3)n2)cc1OCc1ccccc1 [Compound 1153, N2-(2-Aminocarbonyl-5-benzoxy-4-methoxyphenyl)-N4-cyclobutyl-5-fluoro-N4-methyl-2,4-pyrimidinediamine] |  |  | > 10 µM | > 10 µM |  | 
O=C(Nc1ccc(Nc2ncc(F)c(NC3CCC3)n2)cc1)c1ccccc1 [Compound 1154, N2-(4-Benzamidophenyl)-N4-cyclobutyl-5-fluoro-2,4-pyrimidinediamine] |  |  | > 10 µM | < 10 µM |  | 
Fc1cnc(Nc2ccc(N3CCOCC3)cc2)nc1NC1CCCC1 [Compound 1155, N4-Cyclopentyl-5-fluoro-N2-(4-morpholinophenyl)-2,4-pyrimidinediamine] |  |  | > 10 µM | < 10 µM |  | 
CC(=O)N1CCN(c2ccc(Nc3ncc(F)c(NC4CCCC4)n3)cc2)CC1 [Compound 1156, N2-[4-(4-Acetylpiperazino)phenyl]-N4-cyclopentyl-5-fluoro-2,4-pyrimidinediamine] |  |  | > 10 µM | < 10 µM |  | 
CN1CCN(c2ccc(Nc3ncc(F)c(NC4CCCC4)n3)cc2)CC1 [Compound 1157, N4-Cyclopentyl-5-fluoro-N2-[4-(4-methylpiperazino)phenyl]-2,4-pyrimidinediamine] |  |  | > 10 µM | < 10 µM |  | 
Fc1cnc(Nc2cccc(N3CCOCC3)c2)nc1NC1CCCC1 [Compound 1158, N4-Cyclopentyl-5-fluoro-N2-(3-morpholinophenyl)-2,4-pyrimidinediamine] |  |  | > 10 µM | < 10 µM |  | 
CC(=O)N1CCN(c2cccc(Nc3ncc(F)c(NC4CCCC4)n3)c2)CC1 [Compound 1159, N2-[3-(4-Acetylpiperazino)phenyl]-N4-cyclopentyl-5-fluoro-2,4-pyrimidinediamine] |  |  | > 10 µM | < 10 µM |  | 
CN1CCN(c2cccc(Nc3ncc(F)c(NC4CCCC4)n3)c2)CC1 [Compound 1160] |  |  | > 10 µM | < 10 µM |  | 
CCOC(=O)N1CCN(c2cccc(Nc3ncc(F)c(NC4CCCC4)n3)c2)CC1 [Compound 1161] |  |  | > 10 µM | < 10 µM |  | 
Fc1cnc(Nc2ccc(N3CCOCC3)cc2)nc1NC1CCCCC1 [Compound 1162, N4-Cyclohexyl-5-fluoro-N2-(4-morpholinophenyl)-2,4-pyrimidinediamine] |  |  | > 10 µM | < 10 µM |  | 
CC(=O)N1CCN(c2ccc(Nc3ncc(F)c(NC4CCCCC4)n3)cc2)CC1 [Compound 1163, N2-[4-(4-Acetylpiperazino)phenyl]-N4-cyclohexyl-5-fluoro-2,4-pyrimidinediamine] |  |  | > 10 µM | < 10 µM |  | 
CCOC(=O)N1CCN(c2ccc(Nc3ncc(F)c(NC4CCCCC4)n3)cc2)CC1 [Compound 1165, N4-Cyclohexyl-N2-[4-(4-ethoxycarbonylpiperazino)phenyl]-5-fluoro-2,4-pyrimidinediamine] |  |  | < 10 µM | < 10 µM |  | 
Fc1cnc(Nc2cccc(N3CCOCC3)c2)nc1NC1CCCCC1 [Compound 1166, N4-Cyclohexyl-5-fluoro-N2-(3-morpholinophenyl)-2,4-pyrimidinediamine] |  |  | > 10 µM | < 10 µM |  | 
